{"source": "patent US20090217396A1", "about": "“Inflammation models in neurodegenerative and arthritic disorders” (priority 2004, published 2009)", "molecules": {"B1": {"name": "IL-1β: recombinant IL-1β cytokine administered exogenously to cells or injected into the cisterna magna (protein, UniProt P10749 118-269, looked up)", "Interleukin-1 beta": "VPIRQLHYRLRDEQQKSLVLSDPYELKALHLNGQNINQQVIFSMSFVQGEPSNDKIPVALGLKGKNLYLSCVMKDGTPTLQLESVDPKQYPKKKMEKRFVFNKIEVKSKVEFESAEFPNWYISTSQAEHKPVFLGNNSGQDIIDFTMESVSS"}}, "key": {"[1]": {"tested_on": "293HGLVP/CrePr cells", "experiment": "RU486-induced CrePr activation of transfected IL-1β^XAT", "type": "cell-based, human", "procedure": "Neurobiol Aging 23:977-84] and the expression of IL-1β and lacZ was evaluated following RU486 (10^-7M) administration.\nMol Ther 8: 790-95]. […] Please refer to FIG. 3 for summary of the experiment."}, "[2]": {"tested_on": "primary rat endothelial cell cultures", "experiment": "Regulation of inflammation-related genes by IL-1β with or without indomethacin in endothelial cells", "type": "cell-based", "procedure": "The effects of IL-1β were evaluated in vitro utilizing primary rat endothelial cell cultures as a representative rodent cell type. In this experiment, murine IL-1β (10 ng/mL) was administered exogenously to cultured primary cells, and subsequently examined the regulation of several inflammation-related genes at the transcript level over the course of 72 hours. These molecules include (A) the inducible isoform of cyclooxygenase (COX-2), intercellular adhesion molecule-1 (ICAM-1) and monocyte chemoattractant protein-1 (MCP-1), as well as (B) the […]. Panel (C) depicts enzyme activity levels of MMP-2 and MMP-9 as evaluated by zymography.\nThe regulation of pro-collagen IV was also included in the study as control (not an inflammatory gene)—Panel B.\nMol Ther 8: 790-95], rat endothelial cells were employed as a representative rodent model to investigate the effects of IL-1β on the regulation of ICAM-1, MCP-1, MMP-2 and MMP-9 at the transcriptional level (mRNA) as well as the enzyme activity level (zymography).\nNon-steroidal anti-inflammatory drugs (NSAIDS) are inhibitors of cyclooxygenase, a rate-limiting enzyme in the production of prostaglandins. Indomethacin, a prototype NSAID often employed in laboratory studies as well as in the hospital setting, has been evaluated for the potential to modulate the inflammatory response elicited by pro-inflammatory cytokines, such as IL-1β. To this end, rodent cells were utilized as a model to study the interaction between IL-1β, and indomethacin in vitro [Kyrkanides S, et al. (2000)."}, "[3]": {"tested_on": "C57BL/6 mice", "settings": "morphine intraperitoneal 30 min prior to formalin injection"}, "[4]": {"tested_on": "adult mice", "experiment": "IL-1β injection into the cisterna magna: CGRP and GFAP IHC", "type": "in vivo, mouse", "settings": "10 ng in 2 μl into cisterna magna", "procedure": "FIG. 51 whose IL-1β injection into the cisterna magna induces neuronal excitation and astrocyte activation. Recombinant IL-1β was injected into the cisterna magna of adult mice (10 ng in 2 μl of aqueous solution). Neuronal excitation was evaluated by CGRP and astrocyte activation by GFAP IHC. (A) The saline-injected mouse is characterized by lack of CGRP expression at the main sensory nucleus. […] GFAP immunohistochemistry in (C) control and (D) experimental mice."}, "[5]": {"settings": "INDO + IL-1β simultaneously vs IL-1β alone (FIG. 7)"}, "[6]": {"settings": "murine IL-1β 10 ng/mL, over 72 hours (FIG. 6)"}, "[7]": {"settings": "recombinant IL-1β alone (FIG. 7)"}}, "note": "“Also recorded” adds a separate entry of the source."}
{"molecule": "CC#C[C@]1(O)CC[C@H]2[C@@H]3CCC4=CC(=O)CCC4=C3[C@@H](c3ccc(N(C)C)cc3)C[C@@]21C", "note": "[RU486, mifepristone]", "values": [{"measurement": "IL-1β and lacZ mRNA (RT-PCR)", "setting": "[1]; RU486 10^-7M, IL-1β^XAT transiently transfected", "value": "up-regulation"}, {"measurement": "secreted IL-1β protein in supernatant media (ELISA for human IL-1β)", "setting": "[1]; RU486-treated cells", "value": "significantly higher levels"}, {"measurement": "IL-1β^XAT DNA recombination", "setting": "[1]; RU486 administration following IL-1β^XAT transfection", "value": "DNA excisional recombination"}, {"measurement": "number of X-gal positive cells (β-galactosidase reporter)", "setting": "[1]; RU486 in culture media vs naïve cells", "value": "significant increase"}]}
{"molecule": "COc1ccc2c(c1)c(CC(=O)O)c(C)n2C(=O)c1ccc(Cl)cc1", "note": "[indomethacin]", "values": [{"measurement": "ICAM-1, MCP-1 and MMP-9 transcript levels", "setting": "[2]; [5]", "value": "further increased"}, {"measurement": "collagenase activity of MMP-2 and MMP-9", "setting": "[2]; [5]", "value": "further increased"}, {"measurement": "expression of inflammatory mediators induced by IL-1β", "setting": "[2]; indomethacin with IL-1β, rodent cells in vitro (FIG. 7)", "value": "further exacerbated"}]}
{"molecule": "CN1CC[C@]23c4c5ccc(O)c4O[C@H]2[C@@H](O)C=C[C@H]3[C@H]1C5", "note": "[morphine]", "values": [{"measurement": "orofacial grooming in formalin-challenged mice", "setting": "[3]", "value": "normalized; also recorded: attenuation of orofacial grooming in formalin-challenged mice to near normal levels"}]}
{"molecule": "B1", "values": [{"measurement": "astrocyte activation (GFAP IHC) in brain stem", "setting": "[4]", "value": "activation of astrocytes"}, {"measurement": "CGRP expression at main sensory nucleus (neuronal excitation)", "setting": "[4]; vs saline", "value": "pronounced CGRP immunoreactivity"}, {"measurement": "MMP-2 enzyme activity (zymography)", "setting": "[2]; [6]", "value": "increased with time"}, {"measurement": "mRNA levels of MMP-2", "setting": "[2]; [6]", "value": "not altered"}, {"measurement": "synthesis of COX-2, MCP-1, ICAM-1 and MMP-9 (mRNA)", "setting": "[2]; [6]", "value": "upregulated"}, {"measurement": "enzyme activity of MMP-2 and MMP-9 (zymography)", "setting": "[2]; [7]", "value": "upregulated"}, {"measurement": "transcriptional expression of ICAM-1, MCP-1 and MMP-9 (RT-PCR)", "setting": "[2]; [7]", "value": "induced"}]}
